The source of these data is paper PMC3723878 (PLoS ONE, 2013).

Residue numbers refer to the chain shown, from its start.

Assay [1] deals with T1, α1A-AR (Homo sapiens, UniProt P35348).
T1 sequence (P35348 1-466): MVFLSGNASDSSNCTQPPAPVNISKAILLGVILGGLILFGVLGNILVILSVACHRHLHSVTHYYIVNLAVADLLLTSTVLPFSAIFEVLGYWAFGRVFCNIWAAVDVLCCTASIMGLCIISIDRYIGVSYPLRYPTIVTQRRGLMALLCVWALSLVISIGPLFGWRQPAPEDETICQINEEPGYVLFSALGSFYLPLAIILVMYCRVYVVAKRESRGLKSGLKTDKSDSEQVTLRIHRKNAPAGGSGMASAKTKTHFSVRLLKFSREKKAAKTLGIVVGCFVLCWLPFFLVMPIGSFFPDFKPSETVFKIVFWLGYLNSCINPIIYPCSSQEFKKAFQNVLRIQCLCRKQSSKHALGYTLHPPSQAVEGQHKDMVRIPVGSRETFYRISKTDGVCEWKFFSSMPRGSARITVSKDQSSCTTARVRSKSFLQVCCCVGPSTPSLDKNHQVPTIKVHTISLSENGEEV
As to the kind of experiment: Intracellular Ca^2+ release in CHO-K1 cells expressing the α1A-AR. In kind it is cell-based. Also on record: expressed in transfected cells. As to conditions: for Emax: CHO-K1, read-out: Emax, Ca^2+ release. Here is the method: (§1) CHO cells stably expressing α1-ARs were kindly provided by Dr. Hervé Paris (INSERM U858, Toulouse, France) and were grown in a 50∶50 Dulbecco's Modified Eagle's Medium (DMEM)/Ham's F12 medium supplemented with 10% (v/v) foetal bovine serum (FBS), glutamine (2 mM), penicillin (100 units/ml) and streptomycin (100 µg/ml) at 37°C with 5% CO2. COS-7 cells were grown at 37°C under 5% CO2 in Dulbecco's modified Eagle's medium containing 10% fetal calf serum, 1% penicillin and 1% glutamine (Sigma-Aldrich, St Quentin-Fallavier, France). At 80% confluence, the cells were transfected using a calcium phosphate precipitation method for transient expression of the genetic construct. After 48 h incubation at 37°C, cells were harvested and the membranes were prepared as follow. Cells were washed with ice-cold phosphate buffer and centrifuged at 1700 g for 10 min (4°C). The pellet was suspended in ice-cold buffer (1 mM EDTA, 25 mM sodium phosphate, and 5 mM MgCl2, pH 7.4) and homogenized using an Potter-Elvehjem homogenizer (Fisher Scientific Labosi, Elancourt, France). The homogenate was centrifuged at 1700 g for 15 min (4°C). The sediment was resuspended in buffer, homogenized, and centrifuged at 1700 g for 15 min (4°C). The combined supernatants were centrifuged at 35,000 g for 30 min (4°C), and the pellet was suspended in the same buffer (0.1 ml/dish). […] Cells were grown in a 50∶50 Dulbecco's Modified Eagle's Medium (DMEM)/Ham's F12 medium supplemented with 10% (v/v) foetal bovine serum (FBS), glutamine (2 mM), penicillin (100 units/ml) and streptomycin (100 µg/ml) at 37°C with 5% CO2. Media was changed every 2–3 days and cells were passaged when confluent with 0.05% trypsin and 0.02% EDTA.
All experiments were performed in duplicate.

The target of assay [2] is T2, human α1A-AR WT (Homo sapiens, UniProt P35348).
T2 construct: expressed in transfected cells; host or cells: COS-7, transient (calcium phosphate)
T2 sequence (P35348 1-466): T1 sequence (P35348 1-466)
Briefly: Competition binding with ^125I-HEAT, wild type receptor. Here is the method:
as §1
(§2) Binding experiments were performed in a 100 µL reaction mix at room temperature in buffer composed of 50 mM Tris-HCl, pH 7.4, 10 mM MgCl2, 1 g/L BSA. Reactions were stopped by filtration through 96 GF/C filter plates pre-incubated with 0.5% polyethylenimine.
(§3) Binding data were analyzed by nonlinear regression using the KaleidaGraph 4.0 software (Synergy software, Reading, PA). pKD values and Bmax (number of binding sites) were determined by applying a nonlinear regression to data obtained with saturation binding assays. […] Data resulting from competition binding assays were analyzed using the Hill equation for IC50 and curve slope estimations. […] The linear curves were analyzed with IC50 = Ki+(L/KD)*Ki. Dissociation kinetics were analyzed using a simple equation of exponential decay BS * exp (-Koff*t), where BS is the specific binding at time zero and Koff is the dissociation rate constant. Results are expressed as mean ± s.e. mean from n independent experiments. […]

The target in assay [3] is T1, α1A-AR. Briefly: Competition binding with ^3H-prazosin. The arrangement: expressed in transfected cells. As to conditions: inhibition of ^3H-prazosin 2 nM. Here is the method: CHO cells stably expressing α1-ARs were kindly provided by Dr. Hervé Paris (INSERM U858, Toulouse, France) and were grown in a 50∶50 Dulbecco's Modified Eagle's Medium (DMEM)/Ham's F12 medium supplemented with 10% (v/v) foetal bovine serum (FBS), glutamine (2 mM), penicillin (100 units/ml) and streptomycin (100 µg/ml) at 37°C with 5% CO2. COS-7 cells were grown at 37°C under 5% CO2 in Dulbecco's modified Eagle's medium containing 10% fetal calf serum, 1% penicillin and 1% glutamine (Sigma-Aldrich, St Quentin-Fallavier, France). At 80% confluence, the cells were transfected using a calcium phosphate precipitation method for transient expression of the genetic construct. […]
as §3

Assay [4] deals with T3, human α1A-AR F187A variant (Homo sapiens, UniProt P35348, F187A).
T3 construct: expressed in transfected cells; host or cells: COS-7, transient (calcium phosphate)
T3 sequence (P35348 1-466 F187A): T1 sequence (P35348 1-466) with F187A
As to the kind of experiment: Saturation binding of ^125I-HEAT. As to conditions: F187A variant relative to wild type.
Description: (§4) α1A-AR cDNA inserted in the prK5 vector was kindly provided by Michael Brownstein (Craig Venter Institute, Rockville, MD). Point mutations were introduced into the α1A-AR gene by sense and antisense primers (Sigma-Aldrich, St Quentin-Fallavier, France) containing the desired changes, using the QuikChange Site-Directed Mutagenesis kit. The incorporation of each mutation was verified by DNA sequencing.
as §1, §2
Binding data were analyzed by nonlinear regression using the KaleidaGraph 4.0 software (Synergy software, Reading, PA). pKD values and Bmax (number of binding sites) were determined by applying a nonlinear regression to data obtained with saturation binding assays. The nonlinear regression used was BS = (Bmax*A)/KD+A, where BS is the specific binding, Bmax the number of binding sites, A the concentration of radioligand, and KD the dissociation constant of the radioligand. Data resulting from competition binding assays were analyzed using the Hill equation for IC50 and curve slope estimations. […] The linear curves were analyzed with IC50 = Ki+(L/KD)*Ki. Dissociation kinetics were analyzed using a simple equation of exponential decay BS * exp (-Koff*t), where BS is the specific binding at time zero and Koff is the dissociation rate constant. Results are expressed as mean ± s.e. mean from n independent experiments. One-way Anova test was used to compare values. A p<0.05 was accepted for statistical significance.

For assay [5], the target named is T4, human α1A-AR F86A variant (Homo sapiens, UniProt P35348, F86A).
T4 construct: expressed in transfected cells; host or cells: COS-7, transient (calcium phosphate)
T4 sequence (P35348 1-466 F86A): T1 sequence (P35348 1-466) with F86A
As to the kind of experiment: Competition binding with ^125I-HEAT.
Description: as §4
as §1, with “Media was changed every 2–3 days and cells were passaged when confluent with 0.05% trypsin and 0.02% EDTA.” left out
as §3

Assay [6] deals with T5, human α1A-AR D106A variant (Homo sapiens, UniProt P35348, D106A).
T5 construct: expressed in transfected cells; host or cells: COS-7, transient (calcium phosphate)
T5 sequence (P35348 1-466 D106A): T1 sequence (P35348 1-466) with D106A
Briefly: Competition binding with ^125I-HEAT.
Description: as §4
as §1, with “Media was changed every 2–3 days and cells were passaged when confluent with 0.05% trypsin and 0.02% EDTA.” left out
as §3

Assay [7] has as its target α1B-AR. The arrangement: method as in PMID 20015090. To be noted: α1B-AR expressed in yeast; read-out: affinity; cited from earlier work.
In assay [8] the target is α1D-AR. Also on record: method as in PMID 20015090. As to conditions: α1D-AR expressed in yeast; read-out: affinity; cited from earlier work.
Assay [9] relates to α1A-AR. Also on record: method as in PMID 20015090. To be noted: cited from earlier work.
Setting [10] is: linear fit of ρ-Da1a IC50 against ^125I-HEAT concentration.

`CS(=O)(=O)Nc1c(O)ccc2c1CCCC2C1=NCCN1` (stereo not shown) [A61603]: the “Emax, Ca^2+ release” value in assay [1] (CHO-K1 cells expressing the α1A-AR, agonist alone, A23187 1 µM) was 75.5±1.3 percentage of peak A23187 response.
As to `O=C1c2ccccc2CCC1CNCCc1ccc(O)cc1` (stereo not shown) [HEAT], the “Ratio (Ki relative to WT)” value in assay [2] (WT) worked out at 1. Also, the pKi in assay [2] (WT, competition with ^125I-HEAT 200 pM) is listed as 9.57±0.08; in assay [3] (n = 3), 9.66±0.08 nM; in assay [5] (competition with ^125I-HEAT […]) it was 8.21±0.09; in assay [6] (competition with ^125I-HEAT 200 pM), 9.74±0.12. Further, in assay [2] (setting [10]), the Kd (usually the constant that tells how readily two partners part at equilibrium) was 0.0435 nM. The negative logarithm of the Kd (pKd) (as a rule, −log10 of the Kd, conventionally taken in molar units) in assay [2] (setting [10]) amounted to 10.36. Also, the Hill slope (usually a measure of the steepness of the concentration-response curve) in assay [3] was 0.85. In [4], the “increase in HEAT affinity” value was 4.5 fold. Also, the entries for the “Ratio (reduction of affinity relative to WT)” value in assay [5] and in assay [6] were 23 ^* and 0.67, respectively.
Take `NC[C@H](O)c1ccc(O)c(O)c1` [noradrenaline]: the Emax (usually the greatest response seen or fitted, relative to the assay's reference) in assay [1] is 77.8 ± 1.5%.
The same measure, in the same setting: with `Cc1cc(C(C)(C)C)c(O)c(C)c1CC1=NCCN1` [oxymetazoline] the figure was 60.8 ± 1.3%; with `CNC[C@H](O)c1cccc(O)c1` [phenylephrine], 64.8 ± 2.4%.
As to ρ-Da1a, the Ki in assay [7] was 317 nM; in assay [8], 420 nM; in assay [9] (α1A-AR expressed in yeast, read-out: affinity), 0.35 nM. Further, the “displacement of ^3H-prazosin binding” value in assay [9] (yeast membranes expressing the α1A-AR) is on record as 85%.
